The text below walks through data of patent US10844077B2, “Thiazolyl-containing compounds for treating proliferative diseases” (Dana-Farber Cancer Institute, Inc., priority 2014, dated 2020).

For assay [1], the system named is TMD-8. Kind of assay: CellTiter-Glo Luminescent cell viability assay. Format: cell-based. The following applies: cell survival, 72 hours. The method, then:
(§1) The inhibitory activities of exemplary compounds described herein against select protein kinases and cells were determined. Cell survival following treatment of exemplary compounds described herein was assessed by CellTiter-Glo® Luminescent cell viability assay (Promega). The cells were seeded into 384 well plates with the EL406 Combination Washer Dispenser (BioTek Instruments, Inc.), and a series diluted exemplary compounds (20˜0.0006 μM) were injected into the culture media with the JANUS Automated Workstation (PerkinElmer Inc.). The cells were treated for 72 hours at 37° C. with 5% CO2. Luminescent measurement is performed using the 2104 Envision® Multilabel Reader (PerkinElmer Inc.). EC50 values were calculated with […] PRISM software.
In general terms: ATP-based viability assays read luminescence as a measure of living cells.

The test system of assay [2] is HBL-1. The experiment in a line: CellTiter-Glo Luminescent cell viability assay. Format: cell-based. The following applies: cell survival, 72 hours. The method, then:
as §1

Assay [3] has as its system MWCL-1. The experiment in a line: CellTiter-Glo Luminescent cell viability assay. Format: cell-based. Conditions: cell survival, 72 hours. The method, then: as §1
Assay [4] deals with BCWM.1. Kind of assay: CellTiter-Glo Luminescent cell viability assay. Type of assay: cell-based. Conditions: cell survival, 72 hours. The method, then: as §1
For assay [5], the target named is BTK (Homo sapiens (Human), UniProt Q06187). Kind of assay: BTK inhibitory activity. Type of assay: biochemical.
BTK, sequence (Q06187 whole entry, looked up): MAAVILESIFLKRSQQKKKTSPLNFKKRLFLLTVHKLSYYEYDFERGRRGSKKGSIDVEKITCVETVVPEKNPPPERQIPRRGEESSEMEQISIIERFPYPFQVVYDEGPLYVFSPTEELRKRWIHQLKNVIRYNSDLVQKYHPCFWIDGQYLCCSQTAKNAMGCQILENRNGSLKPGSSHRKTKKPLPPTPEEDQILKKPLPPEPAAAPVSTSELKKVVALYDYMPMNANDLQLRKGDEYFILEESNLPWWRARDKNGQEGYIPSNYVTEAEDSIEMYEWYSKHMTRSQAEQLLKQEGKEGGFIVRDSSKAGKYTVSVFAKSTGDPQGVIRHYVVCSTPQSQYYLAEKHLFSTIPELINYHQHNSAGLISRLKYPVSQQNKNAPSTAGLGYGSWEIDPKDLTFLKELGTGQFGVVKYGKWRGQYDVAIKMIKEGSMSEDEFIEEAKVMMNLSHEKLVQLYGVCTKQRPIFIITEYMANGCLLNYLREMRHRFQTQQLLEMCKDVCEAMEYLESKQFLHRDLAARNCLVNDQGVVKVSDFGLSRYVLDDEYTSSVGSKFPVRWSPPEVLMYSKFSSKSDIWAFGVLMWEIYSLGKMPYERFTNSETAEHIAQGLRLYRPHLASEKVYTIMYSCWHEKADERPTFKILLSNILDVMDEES
Assay [6] has as its system OCI-Ly3. The experiment in a line: CellTiter-Glo Luminescent cell viability assay. Conditions: cell survival, 72 hours. Type of assay: cell-based. The method, then:
as §1

Assay [7] has as its system Ramos. Kind of assay: CellTiter-Glo Luminescent cell viability assay. Format: cell-based. The following applies: cell survival, 72 hours. The method, then:
as §1

For assay [8], the system named is OCI-Ly19. The experiment in a line: CellTiter-Glo Luminescent cell viability assay. Type of assay: cell-based. The following applies: cell survival, 72 hours. The method, then: as §1
Assay [9] relates to OCI-Ly7. The experiment in a line: CellTiter-Glo Luminescent cell viability assay. Format: cell-based. Conditions: cell survival, 72 hours. The method, then:
as §1

The target in assay [10] is HCK (Homo sapiens (Human), UniProt P08631). Kind of assay: HCK inhibitory activity. Type of assay: biochemical.
HCK, sequence (P08631 whole entry): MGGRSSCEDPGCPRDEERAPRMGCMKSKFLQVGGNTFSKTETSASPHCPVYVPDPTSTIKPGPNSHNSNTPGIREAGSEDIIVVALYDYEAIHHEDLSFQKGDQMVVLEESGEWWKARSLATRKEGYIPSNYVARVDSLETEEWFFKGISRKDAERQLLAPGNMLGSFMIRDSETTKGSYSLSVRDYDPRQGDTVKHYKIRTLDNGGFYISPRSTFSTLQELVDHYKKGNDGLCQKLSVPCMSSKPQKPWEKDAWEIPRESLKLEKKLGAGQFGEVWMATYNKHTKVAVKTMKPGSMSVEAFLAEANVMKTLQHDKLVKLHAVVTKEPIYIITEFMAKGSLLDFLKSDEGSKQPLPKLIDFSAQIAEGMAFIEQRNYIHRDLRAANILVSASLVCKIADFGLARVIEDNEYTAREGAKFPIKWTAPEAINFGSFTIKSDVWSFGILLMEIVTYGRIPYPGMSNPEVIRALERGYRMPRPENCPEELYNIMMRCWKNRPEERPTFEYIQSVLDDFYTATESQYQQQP
Assay [11] has as its system OPM-2. Kind of assay: CellTiter-Glo Luminescent cell viability assay. Format: cell-based. Conditions: Homo sapiens, cell survival, 72 hours. The method, then: as §1
For assay [12], the system named is RPMI-8226. The experiment in a line: CellTiter-Glo Luminescent cell viability assay. Type of assay: cell-based. The following applies: Homo sapiens, cell survival, 72 hours. The method, then:
as §1

Regarding `C=CC(=O)N1CC[C@H](Nc2nc(CN3CCOCC3)cc(Nc3ncc(C(=O)Nc4c(C)cccc4Cl)s3)n2)C1` [Compound I-1], the 50% effective concentration (EC50) (as a rule, the concentration that produces a half-maximal response) came to 301 nM in [1], 522 nM in [2], 50 nM in [3] and 73.4 nM in [4]. Moreover, the midpoint of inhibition in assay [5], the IC50, lay at 1.61 nM.

For the compound `C=CC(=O)N1CC[C@H](Nc2nc(CN3CCOCC3)cc(Nc3ncc(C(=O)Nc4c(C)cccc4C)s3)n2)C1` [Compound I-2], the EC50 in assay [6] was > 20000 nM; in assay [1] it was 311 nM; in [2] it was 1670 nM; in [7], > 20000 nM; in assay [8], > 20000 nM; in [3], 67 nM. For the same compound, the EC50 in assay [4] is 41 nM. Also, in assay [5], half-maximal inhibition (IC50) required 1.63 nM.

For `C=CC(=O)N1CC[C@H](Nc2nccc(Nc3ncc(C(=O)Nc4c(C)cccc4C)s3)n2)C1` [Compound I-3], the EC50 in [6] was 39500 nM; in assay [1] it was 158 nM; in assay [2], 669 nM; in assay [9] it was 370 nM; in assay [7], > 20000 nM; in [8] it was 13000 nM. Further, the EC50 amounted to 55.2 nM in assay [3] and 19.3 nM in assay [4]. Besides, half-maximal inhibition in assay [5] (IC50) was put at 0.6 nM.

As for `C=CC(=O)N1CC[C@@H](Nc2nccc(Nc3ncc(C(=O)Nc4c(C)cccc4C)s3)n2)C1` [Compound I-4], the half-maximal effective concentration (EC50) in assay [1] was 315 nM; in [2] it was 449 nM; in assay [7], > 20000 nM; in assay [8], 4270 nM; in assay [3] it was 85 nM; in assay [4], 53 nM. In addition, the IC50 (as a rule, the concentration needed to halve the response being measured) in assay [5] was 1.38 nM.

For `C=CC(=O)N1CCC[C@@H](Nc2nccc(Nc3ncc(C(=O)Nc4c(C)cccc4C)s3)n2)C1` [Compound I-6], the concentration for a half-maximal effect (EC50) in assay [1] is 80.2 nM; in [2], 229 nM; in [9], 520 nM; in assay [3], 93.7 nM; in assay [4] it was 69.6 nM. This compound displayed an IC50 in assay [5] of 1.9 nM.

For `C=CC(=O)N1CCCCC(Nc2nccc(Nc3ncc(C(=O)Nc4c(C)cccc4C)s3)n2)C1` (stereo not drawn) [Compound I-7], the IC50 in assay [10] and in assay [5] was < 0.495 nM throughout. In addition, the EC50 amounted to 49 nM in [1]; 70 nM in assay [2]; 133 nM in assay [7]; 399 nM in assay [8]; 19 nM in assay [3]; 22 nM in assay [4].

For `C=CC(=O)N1CCC(CNc2nccc(Nc3ncc(C(=O)Nc4c(C)cccc4C)s3)n2)C1` (stereo not drawn) [Compound I-8], the IC50 in [10] and in assay [5] was < 0.495 nM throughout. Besides, the EC50 in [1] is 301 nM; in assay [2] it was 522 nM; in assay [7], 7970 nM; in assay [8], 3770 nM; in assay [3], 103 nM; in assay [4], 75 nM.

In the case of `CCC(=O)N1CC[C@H](Nc2nccc(Nc3ncc(C(=O)Nc4c(C)cccc4C)s3)n2)C1` [Compound I-9], the half-inhibitory concentration (IC50) was < 0.495 nM in assay [10] and 0.5 nM in assay [5]. For the same compound, the 50% effective concentration (EC50) in [6] is 14500 nM; in assay [1], 70.9 nM; in assay [2], 220 nM; in assay [7], > 20000 nM; in assay [8], 10000 nM; in assay [3], 25 nM. The EC50 in [4] stood at 9.84 nM.

For the compound `C=CC(=O)N1CC[C@H](Nc2nccc(Nc3ncc(C(=O)Nc4c(C)cccc4Cl)s3)n2)C1` [Compound I-10], the concentration for a half-maximal effect (EC50) in assay [1] came out at 1010 nM; in [2], 1640 nM; in assay [7], 12 nM; in assay [8] it was 5700 nM; in [3] it was 191 nM; in assay [4], 170 nM. In [5], this compound came in with a half-maximal inhibitory concentration (IC50) of 1.74 nM.

Regarding `C=CC(=O)N1CCCCC(Nc2nccc(Nc3ncc(C(=O)Nc4c(C)cccc4Cl)s3)n2)C1` (stereo not drawn) [Compound I-11], the concentration for a half-maximal effect (EC50) in [1] was found to be 500 nM; in assay [2], 623 nM; in assay [7], 1580 nM; in [8] it was 3680 nM; in assay [3] it was 245 nM; in [4], 129 nM. The same compound had an IC50 in assay [5] of 5.52 nM.

Regarding `C=CC(=O)N1CCCC(Nc2nc(CN3CCOCC3)cc(Nc3ncc(C(=O)Nc4c(C)cccc4C)s3)n2)C1` (stereo not drawn) [Compound I-12], the EC50 stood at 453 nM in [1]; 1200 nM in assay [2]; 309 nM in assay [9]; 317 nM in [3]; 75.5 nM in assay [4].

For `Cc1nc(Nc2ncc(C(=O)Nc3c(C)cccc3Cl)s2)cc(N2CCN(CCO)CC2)n1` [Dasatinib, dasatinib, reference compound], the EC50 in [6] (Homo sapiens, OCI-Ly3) was determined as 8060 nM; in assay [1] (Homo sapiens, TMD8), 18.7 nM; in [2] (HBL1), 190 nM; in assay [9] (Homo sapiens, OCI-Ly7), 155 nM; in assay [7] (Homo sapiens, Ramos) it was 4560 nM; in [11], 7110 nM. For the same compound, the EC50 in assay [8] (Homo sapiens, OCI-LY19) was 3860 nM; in assay [12], 5390 nM; in assay [3], 7.41 nM; in assay [4] (BCWM1) it was 1.2 nM.

`C=CC(=O)N1CCCC(Cn2ccc(Nc3ncc(C(=O)Nc4c(C)cccc4Cl)s3)n2)C1` (stereo not drawn) [II-2]: the concentration for a half-maximal effect (EC50) in assay [1] was 929 nM; in assay [2], 1000 nM; in assay [7] it was > 20000 nM; in assay [8], 6540 nM; in [3], 166 nM; in [4], 196 nM. Further, the IC50 in [5] is < 0.495 nM.

With `C=CC(=O)N1CCC(n2cc(Nc3ncc(C(=O)Nc4c(C)cccc4Cl)s3)cn2)CC1` [II-3], the concentration for a half-maximal effect (EC50) in assay [1] was 2540 nM; in assay [2], 3650 nM; in assay [7], > 20000 nM; in assay [8], 9970 nM; in assay [3] it was 772 nM; in assay [4] it was 690 nM. For the same compound, in assay [5], the concentration for half-maximal inhibition (IC50) stood at 19.9 nM.

Regarding `C=CC(=O)N1CC[C@H](Nc2nccc(Nc3nc4ccc(Oc5ccccc5)nc4s3)n2)C1` [III-1], the half-maximal effective concentration (EC50) turned out to be 3850 nM in [1]; 3200 nM in assay [2]; 3700 nM in [7]; 1250 nM in assay [8]; 4080 nM in assay [3]; 1830 nM in [4]. This compound registered a concentration for half-maximal inhibition (IC50) in assay [5] of 86.6 nM.

For the compound `C=CC(=O)N1CC[C@@H](Nc2nccc(Nc3nc4ccc(Oc5ccccc5)nc4s3)n2)C1` [III-2], the EC50 is 2640 nM in [1]; 2960 nM in assay [2]; 2300 nM in [7]; 1100 nM in assay [8]; 1350 nM in assay [3]; 916 nM in assay [4]. In [5], this compound gave an IC50 of 281 nM.

Consider `C=CC(=O)N1CCC[C@H](Nc2nccc(Nc3nc4ccc(Oc5ccccc5)nc4s3)n2)C1` [III-3], for which the 50% effective concentration (EC50) was found to be 4130 nM in assay [1]; 2960 nM in assay [2]; 8460 nM in assay [7]; 2500 nM in assay [8]; 5750 nM in assay [3]; 2710 nM in [4]. The same compound yielded a 50% inhibitory concentration (IC50) in assay [5] of 19.4 nM.

On to `C=CC(=O)N1CCC[C@@H](Nc2nccc(Nc3nc4ccc(Oc5ccccc5)nc4s3)n2)C1` [III-4], for which the 50% effective concentration (EC50) turned out to be 2120 nM in [1]; 2550 nM in [2]; 2190 nM in assay [7]; 1170 nM in [8]; 2160 nM in assay [3]; 808 nM in assay [4]. Besides, the IC50 in [5] was found to be 367 nM.

With `C=CC(=O)N1CCCCC(Nc2nccc(Nc3nc4ccc(Oc5ccccc5)nc4s3)n2)C1` (stereo not drawn) [III-5], the concentration giving a half-maximal response (EC50) in assay [1] stood at 1230 nM; in assay [2] it was 896 nM; in [7] it was 2720 nM; in [8] it was 1330 nM; in [3] it was 3370 nM; in [4] it was 1190 nM. Besides, the IC50 in assay [5] was found to be 9.06 nM.

For the compound `Cn1ccc(Nc2nc3ccc(Oc4ccccc4)nc3s2)n1` [III-6], the EC50 in [1] turned out to be 467 nM; in [2], 450 nM; in assay [7] it was 749 nM; in assay [8], 321 nM; in [3] it was 2170 nM; in assay [4], 270 nM. In assay [5], this compound had a half-maximal inhibitory concentration (IC50) of 2580 nM.

As for `Cn1cc(Nc2nc3ccc(Oc4ccccc4)nc3s2)cn1` [III-7], the IC50 in assay [10] and in assay [5] was > 10000 nM in each case. Besides, the 50% effective concentration (EC50) in assay [1] was > 20000 nM; in [2], > 20000 nM; in assay [7], > 20000 nM; in assay [8] it was 9520 nM; in [3], > 20000 nM; in [4], > 20000 nM.

Take `c1ccc(Oc2ccc3nc(Nc4cnn(C5CCOCC5)c4)sc3n2)cc1` [III-8]: the IC50 in assay [10] and in assay [5] was > 10000 nM each time. The EC50 in assay [1] is 14600 nM; in assay [2], > 20000 nM; in assay [7], > 20000 nM; in [8], 12600 nM; in [3] it was > 20000 nM; in assay [4] it was 7250 nM.

In the case of `c1ccc(Oc2ccc3nc(Nc4cnn(C5CCNCC5)c4)sc3n2)cc1` [III-9], the EC50 in assay [1] was 18300 nM; in assay [2], > 20000 nM; in assay [7] it was 11800 nM; in [8], 7060 nM; in assay [3], 16600 nM; in assay [4], 8290 nM. In addition, half-maximal inhibition in assay [5] (IC50) was put at 2660 nM.
